For experiment [1], the system named is 3T3F442A preadipocytes. The experiment in a line: Adipocyte differentiation: triglyceride accumulation (Adipored) in differentiated 3T3F442A cells. It is filed as cell-based. The settings on record: 168 h, 0.3 μg/ml, 7 days differentiation, FIG. 2, read-out: inhibition (accumulation of triglycerides), optimum activity. The method, then: The Applicant has studied on the one hand the effect of a dry extract of Zanthoxylum bungeanum, and on the other hand the effect of xanthoxyline, on the process of adipocyte differentiation and proliferation. […] 3T3F442A prepadipocytes are capable of differentiating into adipocytes in the presence of insulin, 3-isobutyl-1-methylxanthine and dexamethasone (the Journal of Pharmacology and Experimental Therapeutics: RIVAL Y., 2004, 311(2): 467-475). […] 3T3F442A cells are cultured in DMEM medium (GIBCOBRL, ref 32430-027) containing 10% foetal calf serum at 37° C., 5% CO2 in a humid atmosphere. They are seeded at 5000 cells per well (96-well plate). […] The visualisation and quantification of intracellular lipid vacuoles in the differentiated cells are analysed using Adipored reagent, a fluorescent colorant specific to triglycerides (neutral and amphiphilic lipids) (Journal of Cell Biology: […]., 1985, 100: 965-973). The culture medium is removed and the cells are rinsed with phosphate buffer D-PBS (GIBCOBRL, ref 21300-058). Adipored reagent is then added. After incubation for 10 minutes at ambient temperature, the fluorescence is measured (excitation 485 nm, emission 530 nm). A histological analysis using a confocal Laser microscope (ZEISS LSM 410 Invert Laser scan Microscope) is also carried out at 543 nm.

The test system of the next experiment is Penicillium expansum. As to conditions: literature; cited from earlier work.
In experiment [2] the test system is pathogenic fungi such as Trichophyton. As to conditions: literature; cited from earlier work.
The next experiment deals with Candida albicans. As to conditions: literature; cited from earlier work.
Experiment [3] relates to gram-positive and gram-negative bacteria. As to conditions: literature; cited from earlier work.
Experiment [4] concerns 3T3F442A preadipocytes. The settings on record: adipocyte differentiation model over a long culture period; literature; cited from earlier work.

As a reminder, the inhibition is how much of the control response was suppressed.

With `COc1cc(O)c(C(C)=O)c(OC)c1` [Xanthoxyline, 4,6-dimethoxy-2-hydroxyacetophenone], the inhibition at 0.3 µg/mL with 3T3F442A preadipocytes [1] amounted to 12%. Further, the Anti-fungal activity result (with Penicillium expansum; in experiment [2]; with Candida albicans) was “moderate” throughout. In experiment [3], the Anti-bacterial activity entry was “mediocre”.

For the compound TNFα, the “inhibition of the accumulation of triglycerides” value in the experiment with 3T3F442A preadipocytes [4] was “known to inhibit the accumulation of triglycerides”.

The record behind these values is patent US20100048729A1, “Composition based on xanthoxyline and its use in cosmetic” (PIERRE FABRE DERMO-COSMETIQUE, priority 2006, published 2010).
